The source of these data is US10336762B2 (priority 2017, dated 2019).

Broadly, the IC50 is the concentration that gives 50% inhibition. Higher therefore signals a need for much substance. What is called EC50 is the concentration needed to bring the measured effect to its halfway point.

For test [1], the target named is IRAK4 enzyme (Homo sapiens (Human), UniProt Q9NWZ3). The test can be described thus: biochemical. Particulars: IRAK4 enzyme, TR-FRET, 500 μM ATP. The test is classed as biochemical. A general note: TR-FRET usually uses a lanthanide donor and a delayed reading to cut background.
In test [2] the test system is TNFα. Briefly: cells. The test is classed as cell-based, human. Particulars: Homo sapiens, Monocyte, LPS-stimulated human monocytes, TNFα by TR-FRET; read-out: EC50 TNF.

Structures are written as SMILES.

Sequence of IRAK4 enzyme (Q9NWZ3 whole entry): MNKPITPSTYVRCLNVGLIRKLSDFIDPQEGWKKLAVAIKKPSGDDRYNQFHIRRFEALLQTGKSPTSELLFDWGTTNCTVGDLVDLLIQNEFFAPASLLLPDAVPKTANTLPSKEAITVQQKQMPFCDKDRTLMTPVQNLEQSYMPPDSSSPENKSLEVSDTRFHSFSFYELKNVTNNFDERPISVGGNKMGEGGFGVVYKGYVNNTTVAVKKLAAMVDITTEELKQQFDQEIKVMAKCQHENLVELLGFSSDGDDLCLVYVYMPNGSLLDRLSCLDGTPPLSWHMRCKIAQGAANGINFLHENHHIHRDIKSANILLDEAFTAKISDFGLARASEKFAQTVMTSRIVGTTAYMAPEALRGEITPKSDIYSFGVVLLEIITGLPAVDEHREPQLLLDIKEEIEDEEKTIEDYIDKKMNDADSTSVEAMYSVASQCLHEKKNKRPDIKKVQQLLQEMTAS

Compound `CC(C)(O)[C@H](F)CNC(=O)c1cnc(-c2ccc3cc(C#N)cnn23)cc1-n1cc(-c2cnc(N)cn2)cn1` [Example 936, (R)-4-(4-(5-aminopyrazin-2-yl)-1H-pyrazol-1-yl)-6-(3-cyanopyrrolo[1,2-b]pyridazin-7-yl)-N-(2-fluoro-3-hydroxy-3-methylbutyl) nicotinamide] displayed an IC50 in test [1] of 147 nM. Besides, the EC50 in test [2] is greater than 10000 nM.

In test [1], `CC(C)(O)[C@H](F)CNC(=O)c1cnc(-c2ccc3cc(C#N)cnn23)cc1N[C@H]1C[C@H](CNC(=O)C23CC(C2)C3)C1` [Example 937, 4-(((1r,3R)-3-((bicyclo[1.1.1]pentane-1-carboxamido)methyl)cyclobutyl)amino)-6-(3-cyanopyrrolo[1,2-b]pyridazin-7-yl)-N-((R)-2-fluoro-3-hydroxy-3-methylbutyl)nicotinamide] returned a 50% inhibitory concentration (IC50) of 2 nM. Also, in test [2], the 50% effective concentration (EC50) worked out at 133 nM.

In turn, `CC(C)C(=O)NC[C@H]1C[C@H](Nc2cc(-c3ccc4cc(C#N)cnn34)ncc2C(=O)NC[C@@H](F)C(C)(C)O)C1` [Example 938, 6-(3-cyanopyrrolo[1,2-b]pyridazin-7-yl)-N-((R)-2-fluoro-3-hydroxy-3-methylbutyl)-4-(((1r,3R)-3-(isobutyramidomethyl)cyclobutyl)amino) nicotinamide] yielded an IC50 in test [1] of 1 nM. In addition, in test [2], the EC50 came out at 68 nM.

In turn, `CC(C)(O)[C@H](F)CNC(=O)c1cnc(-c2ccc3cc(C#N)cnn23)cc1-n1cc(-c2ccc(N)cn2)cn1` [Example 939, (R)-4-(4-(5-aminopyridin-2-yl)-1H-pyrazol-1-yl)-6-(3-cyanopyrrolo[1,2-b]pyridazin-7-yl)-N-(2-fluoro-3-hydroxy-3-methyl-butyl)nicotinamide] registered an IC50 in test [1] of 642 nM. For the same compound, the EC50 in test [2] is greater than 10000 nM.

Regarding `CC(C)(O)[C@H](F)CNC(=O)c1cnc(-c2ccc3cc(C#N)cnn23)cc1N[C@H]1C[C@H](CNC(=O)C2CC(F)(F)C2)C1` [Example 940, 6-(3-cyanopyrrolo[1,2-b]pyridazin-7-yl)-4-(((1r,3R)-3-((3,3-difluorocyclobutane-1-carboxamido)methyl)cyclobutyl)amino)-N-((R)-2-fluoro-3-hydroxy-3-methylbutyl)nicotinamide], the IC50 in test [1] was less than 1 nM. Also, the EC50 in test [2] was 44 nM.

Consider `CC(C)(O)[C@H](F)CNC(=O)c1cnc(-c2ccc3cc(C#N)cnn23)cc1N[C@H]1C[C@H](CNC(=O)C2CC2F)C1` (stereo partly drawn) [Example 941, 6-(3-cyanopyrrolo[1,2-b]pyridazin-7-yl)-N-((R)-2-fluoro-3-hydroxy-3-methylbutyl)-4-(((1R,3R)-3-(((1R,2R)-2-fluorocyclo-propane-1-carboxamido)methyl)cyclobutyl)amino) nicotinamide], for which the IC50 in test [1] is less than 1 nM. Further, in test [2], the EC50 is 19 nM.

In test [1], `C[C@H](NC(=O)c1cnc(-c2ccc3cc(C#N)cnn23)cc1NC12CCC(O)(CC1)CC2)C(=O)N1CC(F)(F)C1` [Example 942, (S)-6-(3-cyanopyrrolo[1,2-b]pyridazin-7-yl)-N-(1-(3,3-difluoroazetidin-1-yl)-1-oxopropan-2-yl)-4-((4-hydroxybicyclo[2.2.2]octan-1-yl)amino) nicotinamide] registered an IC50 of 8 nM. In addition, the EC50 in test [2] was 587 nM.

In test [1], `C[C@H](NC(=O)c1cnc(-c2ccc3cc(C#N)cnn23)cc1NC12CCC(O)(CC1)CC2)C(=O)N1CCOCC1` [Example 943, (S)-6-(3-cyano-pyrrolo[1,2-b]pyridazin-7-yl)-4-((4-hydroxy-bicyclo[2.2.2]octan-1-yl)amino)-N-(1-morpholino-1-oxopropan-2-yl) nicotinamide] gave an IC50 of 35 nM. The EC50 in test [2] was 836 nM.

Compound `N#Cc1cnn2c(-c3cc(NC45CCC(O)(CC4)CC5)c(C(=O)NCC(=O)N4CCC(O)C4)cn3)ccc2c1` [Example 944, (S)-6-(3-cyano-pyrrolo[1,2-b]pyridazin-7-yl)-4-((4-hydroxy-bicyclo[2.2.2]octan-1-yl)amino)-N-(2-(3-hydroxypyrrolidin-1-yl)-2-oxoethyl) nicotinamide] yielded an IC50 in test [1] of less than 1 nM. Further, the EC50 in test [2] was 209 nM.

The compound `CNC(=O)[C@H](F)CNC(=O)c1cnc(-c2ccc3cc(C#N)cnn23)cc1NC12CCC(O)(CC1)CC2` [Example 945, (R)-6-(3-cyanopyrrolo[1,2-b]pyridazin-7-yl)-N-(2-fluoro-3-(methylamino)-3-oxopropyl)-4-((4-hydroxybicyclo[2.2.2]octan-1-yl)amino) nicotinamide] displayed a half-inhibitory concentration (IC50) in test [1] of 1 nM. In addition, in test [2], the EC50 came out at 116 nM.

For `CN(C)C(=O)[C@H](F)CNC(=O)c1cnc(-c2ccc3cc(C#N)cnn23)cc1NC12CCC(O)(CC1)CC2` [Example 946, (R)-6-(3-cyanopyrrolo[1,2-b]pyridazin-7-yl)-N-(3-(dimethylamino)-2-fluoro-3-oxopropyl)-4-((4-hydroxybicyclo[2.2.2]octan-1-yl)amino) nicotinamide], the IC50 in test [1] worked out at 1 nM. Further, the EC50 in test [2] is 120 nM.

As for `N#Cc1cnn2c(-c3cc(NC45CCC(O)(CC4)CC5)c(C(=O)NC[C@@H](F)C(=O)N4CC(F)(F)C4)cn3)ccc2c1` [Example 947, (R)-6-(3-cyanopyrrolo[1,2-b]pyridazin-7-yl)-N-(3-(3,3-difluoroazetidin-1-yl)-2-fluoro-3-oxopropyl)-4-((4-hydroxybicyclo[2.2.2]octan-1-yl)amino) nicotinamide], the IC50 in test [1] is less than 1 nM. Further, the EC50 in test [2] came out at 207 nM.

In the case of `CN1CCN(C(=O)[C@H](F)CNC(=O)c2cnc(-c3ccc4cc(C#N)cnn34)cc2NC23CCC(O)(CC2)CC3)CC1` [Example 948, (R)-6-(3-cyanopyrrolo[1,2-b]pyridazin-7-yl)-N-(2-fluoro-3-(4-methylpiperazin-1-yl)-3-oxopropyl)-4-((4-hydroxybicyclo[2.2.2]octan-1-yl)amino) nicotinamide], the IC50 in test [1] came to 3 nM. Further, the EC50 in test [2] was 282 nM.

`COC(=O)C1(NC(=O)c2cnc(-c3ccc4cc(C#N)cnn34)cc2NC23CCC(O)(CC2)CC3)CC1` [Example 949, methyl 1-(6-(3-cyano-pyrrolo[1,2-b]pyridazin-7-yl)-4-((4-hydroxy-bicyclo[2.2.2]octan-1-yl)amino)nicotinamido) cyclopropane-1-carboxylate] registered an IC50 in test [1] of 1 nM. Also, the EC50 in test [2] came out at 62 nM.

In test [1], `CC1(NC(=O)c2cnc(-c3ccc4cc(C#N)cnn34)cc2NC23CCC(O)(CC2)CC3)CC1` [Example 950, 6-(3-cyanopyrrolo[1,2-b]pyridazin-7-yl)-4-((4-hydroxybicyclo[2.2.2]octan-1-yl)amino)-N-(1-methylcyclopropyl) nicotinamide] had an IC50 of 1 nM. Further, the EC50 in test [2] came out at 70 nM.

Turning to `N#Cc1cnn2c(-c3cc(NC45CCC(O)(CC4)CC5)c(C(=O)NC4(C(F)F)CC4)cn3)ccc2c1` [Example 951, 6-(3-cyanopyrrolo[1,2-b]pyridazin-7-yl)-N-(1-(difluoromethyl)cyclopropyl)-4-((4-hydroxybicyclo[2.2.2]octan-1-yl)amino) nicotinamide], half-maximal inhibition in test [1] (IC50) was put at 2 nM. Further, the EC50 in test [2] turned out to be 159 nM.

`COC(=O)NC[C@H]1C[C@H](Nc2cc(-c3ccc4cc(C#N)cnn34)ncc2C(=O)NCC(=O)N2CC(F)(F)C2)C1` [Example 952, methyl (((1r,3r)-3-((2-(3-cyanopyrrolo[1,2-b]pyridazin-7-yl)-5-((2-(3,3-difluoroazetidin-1-yl)-2-oxoethyl)carbamoyl)pyridin-4-yl)amino)cyclo-butyl)methyl)carbamate] returned an IC50 in test [1] of less than 1 nM. Besides, the EC50 in test [2] turned out to be 62 nM.

As for `N#Cc1cnn2c(-c3cc(NC45CCC(O)(CC4)CC5)c(C(=O)NCC(=O)N4CC[C@@H](O)C4)cn3)ccc2c1` [Example 953, (R)-6-(3-cyanopyrrolo[1,2-b]pyridazin-7-yl)-4-((4-hydroxybicyclo[2.2.2]octan-1-yl)amino)-N-(2-(3-hydroxypyrrolidin-1-yl)-2-oxoethyl) nicotinamide], the IC50 in test [1] was less than 1 nM. For the same compound, the EC50 in test [2] is 240 nM.

In turn, `CC1(O)CN(C(=O)CNC(=O)c2cnc(-c3ccc4cc(C#N)cnn34)cc2NC23CCC(O)(CC2)CC3)C1` [Example 954, 6-(3-cyanopyrrolo[1,2-b]pyridazin-7-yl)-N-(2-(3-hydroxy-3-methylazetidin-1-yl)-2-oxoethyl)-4-((4-hydroxybicyclo[2.2.2]octan-1-yl)amino) nicotinamide] gave an IC50 in test [1] of less than 1 nM. Also, the EC50 in test [2] came to 213 nM.

As for `N#Cc1cnn2c(-c3cc(NC45CCC(O)(CC4)CC5)c(C(=O)N[C@H]4CNC4=O)cn3)ccc2c1` [Example 955, (S)-6-(3-cyanopyrrolo[1,2-b]pyridazin-7-yl)-4-((4-hydroxybicyclo[2.2.2]octan-1-yl)amino)-N-(2-oxo-azetidin-3-yl)nicotinamide], in test [1], the IC50 was less than 1 nM. Also, the EC50 in test [2] was found to be 399 nM.

`CC(C)(O)[C@H](F)CNC(=O)c1cnc(-c2ccc3cc(C#N)cnn23)cc1Nc1ccc(-c2cn[nH]c2)cn1` [Example 956, (R)-4-((5-(1H-pyrazol-4-yl)pyridin-2-yl)amino)-6-(3-cyanopyrrolo[1,2-b]pyridazin-7-yl)-N-(2-fluoro-3-hydroxy-3-methyl-butyl)nicotinamide]: the IC50 in test [1] was less than 1 nM. Moreover, the EC50 in test [2] came to 31 nM.

In the case of `N#Cc1cnn2c(-c3cc(NC45CCC(O)(CC4)CC5)c(C(=O)N[C@H]4CCCNC4=O)cn3)ccc2c1` [Example 957, (S)-6-(3-cyanopyrrolo[1,2-b]pyridazin-7-yl)-4-((4-hydroxybicyclo[2.2.2]octan-1-yl)amino)-N-(2-oxo-piperidin-3-yl)nicotinamide], the half-inhibitory concentration (IC50) in test [1] is less than 1 nM. Moreover, the EC50 in test [2] came out at 173 nM.

`N#Cc1cnn2c(-c3cc(NC45CCC(O)(CC4)CC5)c(C(=O)N[C@@H]4CCCNC4=O)cn3)ccc2c1` [Example 958, (R)-6-(3-cyanopyrrolo[1,2-b]pyridazin-7-yl)-4-((4-hydroxybicyclo[2.2.2]octan-1-yl)amino)-N-(2-oxo-piperidin-3-yl)nicotinamide]: the IC50 in test [1] came out at 1 nM. In addition, the EC50 in test [2] came to 219 nM.
